{
  "source": "paper PMC5282547",
  "about": "“The Proline/Arginine Dipeptide from Hexanucleotide Repeat Expanded C9ORF72 Inhibits the Proteasome” (eNeuro, 2017)",
  "key": {"[1]": {"tested_on": "U2OS cells and human astrocytes", "details": "depending on the specific assay; ref Kwon et al., 2014; cited from earlier work", "source_text": "The difficulty of distinguishing between toxic HRE mRNA and DPR proteins has impeded our understanding of the mechanism underlying C9ORF72 HRE pathophysiology. As reported in Science ([Kwon et al., 2014]), the McKnight lab devised a strategy to overcome this problem: they studied U2OS cells and human astrocytes directly exposed to synthetic DPR proteins. […] We built upon this approa ..."}, "[2]": {"tested_on": "total ubiquitylated protein", "test": "Ubiquitylation assay (total cellular ubiquitin immunoblot)", "assay_type": "cell-based, rat", "details": "2 µM, 2, 4, 8, 16 h; significant at 2, 8 and 16 h", "procedure": "The ubiquitylation assay involved acute time point treatments with PR20. 16 h prior to scheduled lysis, two dishes were treated to a final concentration of 2 μM PR20 using the methods described in the PR20 treatment for biochemical assays subsection. This was repeated 8 h prior to lysis, 4 h prior to lysis, and 2 h prior to lysis. Samples were then lysed in RIPA buffer as described in Cell lysis for ubiquitin blots and processed for Western blot analysis.\nUbiquitin analysis requires the use of deubiquitinase (DUB) inhibitors. Lysis without these inhibitors runs the risk of degradation of the substrates to be targeted. As such, N-ethylmaleimide (Sigma), a potent DUB inhibitor, was used in the lysis buffer. […] The remainder of the lysis procedure follows Cell lysis."}, "motor neurons": {"tested_on": "motor neurons", "test": "Motor neuron survival in mixed spinal cord cultures (SMI32 counts), LD50 determination", "assay_type": "cell-based, rat", "procedure": "Mixed spinal cord neuron cultures were prepared as described previously ([Mojsilovic-Petrovic et al., 2006]). Briefly, an astrocyte feeder layer was prepared from the cortex of newborn Sprague Dawley rat pups [postnatal day 2 (P2)] and grown to ∼80% confluency. Subsequently, dissociated embryonic day 15 (E15) spinal cord neurons were added. One to two days later, AraC ([…]) (catalog #C6645; Sigma) was added for 24 h to arrest astrocyte proliferation. Cultures were maintained in glia-conditioned medium supplemented with the following trophic factors (1.0 ng/ml each): human neurotrophin-3, human neurotrophin-4, human brain-derived neurotrophic factor, and rat ciliary neurotrophic factor (Alomone Labs). Half of the culture medium was replaced on a biweekly basis.\nDays in vitro (DIV)14 mixed spinal cord cultures were exposed to PR20 or GR20 by addition of synthetic peptide to the media one time. Cultures were fixed 5 d later with freshly prepared 4% paraformaldehyde for 20 min, washed extensively with 0.1 M PBS, pH 7.4, and immunostained with SMI32 to identify motor neurons. Immunopositive cells >25 µm in diameter are motor neurons based on their costaining for peripherin, ChAT, and islet 1/2 ([Mojsilovic-Petrovic et al., 2006]). Motor neurons were counted in three nonoverlapping, randomly selected fields on a coverslip using a 5[times objective, and the values from a single coverslip averaged. The results of 3-5 independently treated coverslips were the basis and means and variance used in statistical analysis. Each experiment was repeated with independently generated culture 4+ times ([Mojsilovic-Petrovic et al., 2006]).\nMotor neuron survival 5 d later was determined. Once the approximate LD50 was determined, we repeated the analysis with more closely spaced concentrations for a more precise definition of the LD50. Determination of the LD50 of MG132 was accomplished in an identical manner."}, "[3]": {"tested_on": "phosphorylated S6K and 4EBP1", "test": "Immunoblot for mTOR pathway activation", "assay_type": "cell-based, rat", "details": "2 µM, 48 h, immunoblot normalized to actin", "procedure": "All plates were incubated with PR20 for 48 h.\nOnce scanning of the nitrocellulose membranes probed for 4EBP1/P-4EBP1 and S6K/P-S6K had been completed, Restore Western Blot Stripping Buffer (Thermo Fisher Scientific) was used to strip the blot of antibodies. The membranes were washed twice in PBS-T for 10 min each and then placed in the stripping buffer for 22 min. The membranes were then washed twice once again in PBS-T for 10 min. They were then placed in blocking solution (5% w/v milk in PBS-T) for 45 min."}, "human proteasomes": {"tested_on": "human proteasomes", "test": "Direct interaction with human proteasomes (streptavidin pull-down, anti-HA immunoblot)", "assay_type": "binding", "details": "2 µM HA-tagged peptide, HEK293T extracts with HTBH-tagged β4 subunits, 2 h at 4 °C", "procedure": "Whole-cell extracts from a stable HEK293T cell line harboring HTBH-tagged β4 subunits were prepared as in Han et al. (2014) and incubated with HA-tagged PR20 or GR20 peptides (2 µM) 2 h at 4 °C. The resulting proteasome-dipeptide complexes were pull-downed with streptavidin agarose beads (Millipore) for 3 h at 4 °C. Unbound proteasomes in the supernatants were discarded, and the pellets were mixed with 2× SDS sample buffer. Different amounts of samples were resolved by SDS-PAGE/immunoblotting against HA and a proteasome core particle α3 subunit."}},
  "note": "Where no end group is shown, it is not given here.",
  "data": [
    {"sequence": "PRPRPRPRPRPRPRPRPRPRPRPRPRPRPRPRPRPRPRPRYPYDVPDYA [PR20]", "values": [
      {"measurement": "toxic concentration range", "setting": "[1]", "result": "10 to 30", "unit": "µM"},
      {"measurement": "total ubiquitylated protein levels over time", "setting": "[2]", "result": "progressive increase"},
      {"measurement": "motor neuron death at the 48-h time point", "setting": "motor neurons; 2 µM PR20, 48 h", "result": "No significant motor neuron death"},
      {"measurement": "LD50, death of motor neurons", "setting": "motor neurons; single application to DIV14 mixed spinal cord cultures on astrocyte feeder layer, motor neuron survival 5 d later", "result": 2.0, "unit": "µM"},
      {"measurement": "activation level of the mTOR pathway versus vehicle", "setting": "[3]", "result": "no statistically significant differences"},
      {"measurement": "association with proteasomes in pull-down", "setting": "human proteasomes", "result": "associates with proteasomes"}
    ]}
  ]
}
